According to PubChem BioAssay AID248 (DTP/NCI, 2004):
Several values for one entry are separate records, joined by “and”; a condition that tells them apart may be missing. Identical values can stand only once. Inconclusive results and toxic doses are left out. Rule as the data show it: active = T/C of 150% or more; inactive = T/C below 125%.

Tested on: L1210 leukemia ip in BDF1 mice, survival T/C
Test: NCI In Vivo Anticancer Drug Screen. Data for tumor model L1210 Leukemia (intraperitoneal) in B6D2F1 (BDF1) mice
Settings: higher = longer survival
Method in brief: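 Antitumor effect is assessed in tumor-bearing animals. Survival in the compound arm is compared with a vehicle-dosed control arm and expressed as their quotient.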

[1] = endpoint: mean survival time, dose: 100.0 mg/kg/injection, schedule: Q04DX003 (ip), vehicle: saline with Tween-80
[2] = endpoint: mean survival time, dose: 200.0 mg/kg/injection, schedule: Q04DX003 (ip), vehicle: saline with Tween-80
[3] = endpoint: mean survival time, dose: 400.0 mg/kg/injection, schedule: Q04DX003 (ip), vehicle: saline with Tween-80
[4] = endpoint: mean survival time, dose: 100.0 mg/kg/injection, schedule: Q04DX002 (ip), vehicle: Klucel (hydroxypropylcellulose) (HPC)
[5] = endpoint: mean survival time, dose: 200.0 mg/kg/injection, schedule: Q04DX002 (ip), vehicle: Klucel (hydroxypropylcellulose) (HPC)
[6] = endpoint: mean survival time, dose: 100.0 mg/kg/injection, schedule: Q01DX009 (ip), vehicle: Klucel (hydroxypropylcellulose) (HPC)
[7] = endpoint: mean survival time, dose: 200.0 mg/kg/injection, schedule: Q01DX009 (ip), vehicle: Klucel (hydroxypropylcellulose) (HPC)
[8] = endpoint: mean survival time, dose: 400.0 mg/kg/injection, schedule: Q01DX009 (ip), vehicle: Klucel (hydroxypropylcellulose) (HPC)
[9] = endpoint: mean survival time, dose: 100.0 mg/kg/injection, schedule: Q01DX009 (ip), vehicle: saline
[10] = endpoint: mean survival time, dose: 200.0 mg/kg/injection, schedule: Q01DX009 (ip), vehicle: saline
[11] = endpoint: mean survival time, dose: 400.0 mg/kg/injection, schedule: Q01DX009 (ip), vehicle: saline

Measured: T/C

COC(=O)c1ccc(Cn2ccc(=O)n(Cc3ccc(C(=O)OC)cc3)c2=O)cc1
inactive: [1] 91 % of control | [2] 88 % of control | [3] 90 % of control

O=C(Nc1cccc(C2=NCCN2)c1)c1ccc(OCCCOc2ccc(C(=O)Nc3cccc(C4=NCCN4)c3)cc2)cc1
inactive: endpoint: mean survival time, dose: 9.0 mg/kg/injection, schedule: Q01DX Z (ip), vehicle: saline 113 % of control | endpoint: mean survival time, dose: 12.0 mg/kg/injection, schedule: Q01DX Z (ip), vehicle: water 107 % of control | endpoint: mean survival time, dose: 13.0 mg/kg/injection, schedule: Q01DX Z (ip), vehicle: saline 107 % of control | endpoint: mean survival time, dose: 20.0 mg/kg/injection, schedule: Q01DX Z (ip), vehicle: saline 112 % of control | endpoint: mean survival time, dose: 25.0 mg/kg/injection, schedule: Q01DX Z (ip), vehicle: water 111 % of control

Oc1ccccc1/C=N/Sc1ccccc1.Oc1ccccc1/C=N/Sc1ccccc1.[Ni+2]
inactive: [4] 94 % of control | [5] 94 % of control | endpoint: mean survival time, dose: 400.0 mg/kg/injection, schedule: Q04DX002 (ip), vehicle: Klucel (hydroxypropylcellulose) (HPC) 105 % of control

C[N+](C)(CCO)CC(O)c1ccc(C(O)C[N+](C)(C)CCO)cc1 (stereo not given)
inactive: endpoint: mean survival time, dose: 0.05 mg/kg/injection, schedule: Q04DX003 (ip), vehicle: saline 102 % of control | endpoint: mean survival time, dose: 0.1 mg/kg/injection, schedule: Q04DX003 (ip), vehicle: saline 104 % of control | endpoint: mean survival time, dose: 0.2 mg/kg/injection, schedule: Q04DX003 (ip), vehicle: saline 93 % of control

Cc1cc(OCCOC(=O)Nc2ccccc2F)cc(C)c1Cl
inactive: [6] 93 % of control | [7] 101 % of control | [8] 103 % of control

Nc1ccc(Nc2ccccc2)cc1
inactive: [4] 100 % of control | [5] 104 % of control

COc1ccc(Cl)cc1NC(=O)Nc1ccc(SC)cc1
inactive: [6] 98 % of control | [7] 94 % of control | [8] 96 % of control

COc1cc(N)c2ncccc2c1SC
inactive: [9] 108 % of control | endpoint: mean survival time, dose: 100.0 mg/kg/injection, schedule: Q04DX003 (ip), vehicle: saline 93 % of control | [10] 107 % of control | endpoint: mean survival time, dose: 200.0 mg/kg/injection, schedule: Q04DX003 (ip), vehicle: saline 95 % of control | [11] 116 % of control | endpoint: mean survival time, dose: 400.0 mg/kg/injection, schedule: Q04DX003 (ip), vehicle: saline 102 % of control

CCOC(=O)c1ncn(-c2ccccc2)c1C(=O)OCC
inactive: endpoint: mean survival time, dose: 100.0 mg/kg/injection, schedule: Q04DX002 (ip), vehicle: carboxymethylcellulose (CMC) 100 % of control | endpoint: mean survival time, dose: 100.0 mg/kg/injection, schedule: Q04DX003 (ip), vehicle: carboxymethylcellulose (CMC) 96 % of control and 100 % of control | endpoint: mean survival time, dose: 200.0 mg/kg/injection, schedule: Q04DX002 (ip), vehicle: carboxymethylcellulose (CMC) 97 % of control and 104 % of control | endpoint: mean survival time, dose: 200.0 mg/kg/injection, schedule: Q04DX003 (ip), vehicle: carboxymethylcellulose (CMC) 96 % of control and 101 % of control | endpoint: mean survival time, dose: 400.0 mg/kg/injection, schedule: Q04DX002 (ip), vehicle: carboxymethylcellulose (CMC) 94 % of control and 86 % of control | endpoint: mean survival time, dose: 400.0 mg/kg/injection, schedule: Q04DX003 (ip), vehicle: carboxymethylcellulose (CMC) 94 % of control and 92 % of control

S=c1nc[nH]c2c1CP(c1ccccc1)CC2 (stereo not given)
inactive: [1] 110 % of control | [2] 100 % of control | [3] 101 % of control

N#C[C@H](OC1OC(COC2OC(CO)C(O)C(O)C2O)C(O)C(O)C1O)c1ccccc1 (stereo not given in full)
inactive: [9] 102 % of control | [10] 101 % of control | [11] 98 % of control | endpoint: median survival time, dose: 25.0 mg/kg/injection, schedule: Q01DX009 (ip), vehicle: water 101 % of control | endpoint: median survival time, dose: 25.0 mg/kg/injection, schedule: Q01DX Z (ip), vehicle: water 100 % of control | endpoint: median survival time, dose: 50.0 mg/kg/injection, schedule: Q01DX009 (ip), vehicle: water 92 % of control | endpoint: median survival time, dose: 50.0 mg/kg/injection, schedule: Q01DX Z (ip), vehicle: water 87 % of control | endpoint: median survival time, dose: 100.0 mg/kg/injection, schedule: Q01DX009 (ip), vehicle: water 51 % of control | endpoint: median survival time, dose: 200.0 mg/kg/injection, schedule: Q01DX009 (ip), vehicle: water 51 % of control | endpoint: median survival time, dose: 400.0 mg/kg/injection, schedule: Q01DX009 (ip), vehicle: water 93 % of control | endpoint: median survival time, dose: 400.0 mg/kg/injection, schedule: Q01DX Z (ip), vehicle: water 87 % of control

CCCCC(=O)CCl
inactive: endpoint: mean survival time, dose: 100.0 mg/kg/injection, schedule: Q01DX001 (ip), vehicle: saline 103 % of control | endpoint: mean survival time, dose: 200.0 mg/kg/injection, schedule: Q01DX001 (ip), vehicle: saline 120 % of control | endpoint: mean survival time, dose: 400.0 mg/kg/injection, schedule: Q01DX001 (ip), vehicle: saline 114 % of control

Cc1sc(-c2ccccc2)nc1-c1ccc(N=Cc2ccc(N(CCCl)CCCl)cc2)cc1
inactive: endpoint: mean survival time, dose: 100.0 mg/kg/injection, schedule: Q01DX001 (ip), vehicle: carboxymethylcellulose (CMC) 101 % of control | endpoint: mean survival time, dose: 200.0 mg/kg/injection, schedule: Q01DX001 (ip), vehicle: carboxymethylcellulose (CMC) 101 % of control | endpoint: mean survival time, dose: 400.0 mg/kg/injection, schedule: Q01DX001 (ip), vehicle: carboxymethylcellulose (CMC) 106 % of control

N#CCCC(C#N)(c1ccncc1)N1CCOCC1 (stereo not given)
inactive: endpoint: mean survival time, dose: 12.5 mg/kg/injection, schedule: Q01DX009 (ip), vehicle: saline with Tween-80 105 % of control | endpoint: mean survival time, dose: 25.0 mg/kg/injection, schedule: Q01DX009 (ip), vehicle: saline with Tween-80 102 % of control | endpoint: mean survival time, dose: 50.0 mg/kg/injection, schedule: Q01DX009 (ip), vehicle: saline with Tween-80 94 % of control and 91 % of control

O=[N+]([O-])c1cc([N+](=O)[O-])c2nc3ccccn3c2c1
inactive: endpoint: mean survival time, dose: 100.0 mg/kg/injection, schedule: Q01DX009 (ip), vehicle: saline with Tween-80 96 % of control | endpoint: mean survival time, dose: 200.0 mg/kg/injection, schedule: Q01DX009 (ip), vehicle: saline with Tween-80 102 % of control | endpoint: mean survival time, dose: 400.0 mg/kg/injection, schedule: Q01DX009 (ip), vehicle: saline with Tween-80 107 % of control
